From PubChem BioAssay (NCI)
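Assay format: 96-well plates, 48-hour exposure. TGI marks complete inhibition of growth.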

Legend:
Experiment in all cases: NCI anticancer screen, dose series, 48 h
OVCAR-5 ovarian = system: OVCAR-5 ovarian
MDA-MB-231 breast = system: MDA-MB-231 breast
RPMI-8226 leukemia = system: RPMI-8226 leukemia
NCI-H460 lung = system: NCI-H460 lung
HL-60(TB) leukemia = system: HL-60(TB) leukemia
OVCAR-3 ovarian = system: OVCAR-3 ovarian
SN12C renal = system: SN12C renal
SNB-75 CNS = system: SNB-75 CNS
MDA-N = system: MDA-N
IGROV1 ovarian = system: IGROV1 ovarian
M14 melanoma = system: M14 melanoma
HCT-116 colon = system: HCT-116 colon
HT29 colon = system: HT29 colon
DU-145 prostate = system: DU-145 prostate
OVCAR-4 ovarian = system: OVCAR-4 ovarian
K-562 leukemia = system: K-562 leukemia
ACHN renal = system: ACHN renal
MOLT-4 leukemia = system: MOLT-4 leukemia
MCF7 breast = system: MCF7 breast
NCI-H23 lung = system: NCI-H23 lung
SNB-19 CNS = system: SNB-19 CNS
NCI/ADR-RES ovarian = system: NCI/ADR-RES ovarian
T-47D breast = system: T-47D breast
UACC-62 melanoma = system: UACC-62 melanoma
SF-295 CNS = system: SF-295 CNS
SK-OV-3 ovarian = system: SK-OV-3 ovarian
MDA-MB-435 = system: MDA-MB-435
NCI-H522 lung = system: NCI-H522 lung
NCI-H226 lung = system: NCI-H226 lung
SW-620 colon = system: SW-620 colon
A549 NSCLC = system: A549 NSCLC
SR leukemia = system: SR leukemia
KM12 colon = system: KM12 colon
HCC-2998 colon = system: HCC-2998 colon
HS 578T breast = system: HS 578T breast
CCRF-CEM leukemia = system: CCRF-CEM leukemia
SF-268 CNS = system: SF-268 CNS
HOP-62 NSCLC = system: HOP-62 NSCLC
A498 renal = system: A498 renal
EKVX NSCLC = system: EKVX NSCLC
CAKI-1 renal = system: CAKI-1 renal
HCT-15 colon = system: HCT-15 colon
SK-MEL-2 melanoma = system: SK-MEL-2 melanoma
U251 CNS = system: U251 CNS
BT-549 breast = system: BT-549 breast
PC-3 prostate = system: PC-3 prostate
RXF 393 renal = system: RXF 393 renal
MALME-3M melanoma = system: MALME-3M melanoma
HOP-92 NSCLC = system: HOP-92 NSCLC
OVCAR-8 ovarian = system: OVCAR-8 ovarian
786-0 renal = system: 786-0 renal
COLO 205 colon = system: COLO 205 colon
SK-MEL-28 melanoma = system: SK-MEL-28 melanoma
LOX IMVI melanoma = system: LOX IMVI melanoma
UACC-257 melanoma = system: UACC-257 melanoma
UO-31 renal = system: UO-31 renal
TK-10 renal = system: TK-10 renal
SK-MEL-5 melanoma = system: SK-MEL-5 melanoma
SF-539 CNS = system: SF-539 CNS

SMILES: C=C1CC2(CC(c3ccccc3OC)OC(c3ccccc3OC)C2)OC1=O (centres undefined)
- TGI (OVCAR-5 ovarian): 18.6 µM
- TGI (MDA-MB-231 breast): 3.45 µM
- TGI (RPMI-8226 leukemia): 1.45 µM
- TGI (NCI-H460 lung): 17.7 µM
- TGI (HL-60(TB) leukemia): 3.51 µM
- TGI (OVCAR-3 ovarian): 3.7 µM
- TGI (SN12C renal): 4.05 µM
- TGI (SNB-75 CNS): 9.09 µM
- TGI (MDA-N): 3.44 µM
- TGI (IGROV1 ovarian): 3.37 µM
- TGI (M14 melanoma): 3.35 µM
- TGI (HCT-116 colon): 3.3 µM
- TGI (HT29 colon): 4.32 µM
- TGI (DU-145 prostate): 20.2 µM
- TGI (OVCAR-4 ovarian): 11 µM
- TGI (K-562 leukemia): 5.32 µM
- TGI (ACHN renal): 5.41 µM
- TGI (MOLT-4 leukemia): 5.52 µM
- TGI (MCF7 breast): 3.32 µM
- TGI (NCI-H23 lung): 4.62 µM
- TGI (SNB-19 CNS): 14 µM
- TGI (NCI/ADR-RES ovarian): 7.73 µM
- TGI (T-47D breast): 3.4 µM
- TGI (UACC-62 melanoma): 4.26 µM
- TGI (SF-295 CNS): 14.4 µM
- TGI (SK-OV-3 ovarian): 25.5 µM
- TGI (MDA-MB-435): 3.56 µM
- TGI (NCI-H522 lung): 2.98 µM
- TGI (NCI-H226 lung): 19.4 µM
- TGI (SW-620 colon): 4.03 µM
- TGI (A549 NSCLC): 11.2 µM
- TGI (SR leukemia): 4.92 µM
- TGI (KM12 colon): 6.65 µM
- TGI (HCC-2998 colon): 5.92 µM
- TGI (HS 578T breast): 4.9 µM
- TGI (CCRF-CEM leukemia): 4.47 µM
- TGI (SF-268 CNS): 6.41 µM
- TGI (HOP-62 NSCLC): 26.8 µM
- TGI (A498 renal): 12.1 µM
- TGI (EKVX NSCLC): 27.7 µM
- TGI (CAKI-1 renal): 7.13 µM
- TGI (HCT-15 colon): 4.5 µM
- TGI (SK-MEL-2 melanoma): 3.45 µM
- TGI (U251 CNS): 13.6 µM
- TGI (BT-549 breast): 3.12 µM
- TGI (PC-3 prostate): 4.33 µM
- TGI (RXF 393 renal): 3.31 µM
- TGI (MALME-3M melanoma): 3.31 µM
- TGI (HOP-92 NSCLC): 3.09 µM
- TGI (OVCAR-8 ovarian): 3.56 µM
- TGI (786-0 renal): 3.01 µM
- TGI (COLO 205 colon): 4.06 µM
- TGI (SK-MEL-28 melanoma): 2.17 µM
- TGI (LOX IMVI melanoma): 2.98 µM
- TGI (UACC-257 melanoma): 4.23 µM
- TGI (UO-31 renal): 2.85 µM
- TGI (TK-10 renal): 4.31 µM
- TGI (SK-MEL-5 melanoma): 7.05 µM
- TGI (SF-539 CNS): 4.95 µM
